Source: article PMC10734620, “A blinded in vitro analysis of the intrinsic immunogenicity of hepatotoxic drugs: implications for preclinical risk assessment” (Toxicological Sciences, 2023)
Where two headings read alike, the source gives them in different places.

Experiments:
PBMC = assay: Inhibition of mitogen-induced (PHA-P) PBMC proliferation; type: cell-based, human; settings: PBMC from 3 healthy donors, compound 48 h, then PHA-P 10 µg/ml 24 h, [3H]-thymidine, read-out: IC50, inhibition of mitogen-driven PBMC proliferation
Protocol: Test compounds were provided by GSK to Liverpool as blinded dry powders with a given volume of dimethyl sulfoxide to prepare stock concentrations of 50 mM. Stock concentrations were aliquoted and stored at −80°C until required for experiments. A fresh aliquot was utilized for every experiment. PBMC from 3 healthy donors were used to determine the maximum tolerated concentration of each test compound. PBMC (0.15 × 10^6) were cultured with graded compound concentrations in U-bottomed 96-well plates for 48 h at 37°C, 5% CO2. Phytohemagglutinin (PHA-P; 10 µg/ml) was added to cells for a further 24 h followed by assessment of proliferation through the addition of [^3H]-thymidine (0.5 µCi/well) for the last 16 h. […] The IC50 value was then calculated using 4-parameter logistic curve-fitting model (GraphPad prism 7.0).
Figure 2. Toxicity profiles of training and test compounds. […] PHA-P (10 µg/ml) was added to cells for a further 24 h followed by assessment of proliferation through the addition of [^3H]-thymidine (0.5 µCi/well) for the last 16 h. […] 4-parameter logistic functions were fit to the data and IC50 values were then reported (GraphPad prism 7.0). […] LPB (Liverpool Pharmacology Biobank) represents the unique identifier for PBMC isolated from each consented healthy blood donor for drug safety research. Percentage proliferation for each compound concentration = Proliferation following drug exposure divided by proliferation after cell culture media exposure multiplied by 100.

T-cell clones = assay: Generation and drug-specificity testing of T-cell clones; type: cell-based, human; settings: priming assay and/or T-cell clones
Protocol: To establish T-cell lines, PBMC from 3 healthy HLA-typed (Table 2) donors were cultured with individual test compounds (at concentrations not associated with inhibition of mitogen-driven PBMC proliferation; see Figure 2 for individual concentrations) for 14 days. Medium was supplemented with IL-2 (50 U/ml; Peprotech, New Jersey) to maintain drug-specific T-cell expansion. T-cell clones were generated from the T-cell lines by serial dilution and repetitive mitogen stimulation ([Schnyder et al., 2000]). T-cells (0.3–3 cells/well) were cultured with irradiated allogenic PBMC (5 × 10^4/well) and PHA-P (1 µg/ml) in IL-2 containing medium. The medium was supplemented with fresh IL-2 on days 6, 9 and every 2 days thereafter. Growing cultures were expanded further with a second round of mitogen stimulation and tested for drug-specific T-cell proliferation on day 28. Cloned T-cells (5 × 10^4/well) were cultured with irradiated autologous EBV-transformed B-cells (1 × 10^4/well) and drug in duplicate wells for 48 h. Wells containing medium served as a negative control. Proliferation was measured by the addition of [^3H]-thymidine followed by scintillation counting. T-cell clones with SI ≥ 2 were considered drug-responsive and expanded using irradiated allogeneic PBMC for dose-response studies and assessment of CD4/8 phenotyping.
Proliferation was measured by the addition of [^3H]-thymidine as described above.
T-cell clones were washed with FACS buffer and CD phenotype determined using flow cytometry. Cells (10 000) were acquired using a FACSCanto II (BD Biosciences) and data analyzed by FACSDiva software.
Figure 6. Generation of training compound (nitroso sulfamethoxazole, vancomycin, and Bandrowski’s base)-specific T-cell clones. PBMC from 3 healthy donors were cultured with training compounds and supplemented with IL-2 (50 U/ml) for 14 days. T-cell clones were generated from the T-cell lines by serial dilution and repetitive mitogen stimulation. T-cells (0.3–3 cells/well) were stimulated with irradiated allogenic PBMC (5 × 10^4/well) and phytohemagglutinin (1 µg/ml). Well growing cultures were subjected to a second round of expansion then tested for drug-specific T-cell proliferation. Proliferation was measured by the addition of ^3H-thymidine followed by scintillation counting. A–C, Initial specificity test for nitroso sulfamethoxazole, vancomycin, and Bandrowski’s base clones. T-cell clones showing stimulation index, SI ≥ 2 were considered drug-responsive and expanded and used in dose-response studies. SI = Drug-induced T-cell proliferation divided by T-cell proliferation in cell culture media. […] T-cell activation was determined using [^3H]-thymidine incorporation.
Figure 7. […] PBMC from 3 healthy donors were cultured with test compounds and supplemented with IL-2 (50 U/ml) for 14 days. T-cell clones were generated from the T-cell lines by serial dilution and repetitive mitogen stimulation. T-cells (0.3–3 cells/well) were stimulated with irradiated allogenic PBMC (5 × 10^4/well) and phytohemagglutinin (1 µg/ml). Well growing cultures were subjected to a second round of expansion then tested for drug-specific T-cell proliferation. Proliferation was measured by the addition of ^3H-thymidine followed by scintillation counting. […] T-cell activation was determined using [^3H]-thymidine incorporation.

[1] = set-up: method as in Sakatis et al., 2012; Schofield et al., 2021; settings: Positive = above the threshold of concern; assays not listed negative; ref Sakatis et al., 2012; Schofield et al., 2021; cited from earlier work
[2] = set-up: method as in FDA DILIrank datasets; settings: ref FDA DILIrank datasets; cited from earlier work
[3] = set-up: method as in earlier work; settings: ref National Institute of Diabetes and Digestive and Kidney Diseases (2012); cited from earlier work
naïve T-cells = assay: Priming of naïve human T-cells (dendritic cell-T-cell coculture); type: cell-based; settings: for Proliferation of primed T-cells, drug- vs medium-restimulated wells: 14 days priming, restimulation 48 h at single concentration, 48 wells, [3H]-thymidine; for Proliferation in medium restimulated wells after priming: primed 2 weeks, medium restimulation
Protocol: CD14+ monocytes were positively selected using CD14 antibody-conjugated microbeads. This was followed by the depletion of CD25+ cells from the CD14- population and the negative selection of CD45RA+ naïve T-cells. […] Dendritic cells were generated by culturing monocytes with a cocktail of GM-CSF (800 U/ml) and IL-4 (800 U/ml) in culture media for 6 days. Both cytokines were purchased from Peprotech (New Jersey). A maturation cocktail of TNF-α (25 ng/ml) and LPS (1 µg/ml) was added for 16 h before establishing the T-cell priming culture. Dendritic cells (8 × 10^3 per well) were cultured with naïve T-cells (1 × 10^5 per well) and the test compounds in a 96-well U-bottom tissue culture plate for 14 days at 37°C, 5% CO2. Cells were then washed extensively to remove unbound drug and cultures were restimulated with test compound or medium control (48 wells) for 48 h. Subsequent experiments were performed with training compounds to investigate the dose-dependent stimulation of naïve T-cells. In these experiments, T-cells were cultured with 3 concentrations of the test compound and medium (negative control) during the restimulation step. T-cell proliferative responses were determined by addition of [^3H]-thymidine (0.5 µCi/well) for the final 16 h of the culture period. Plates were harvested and counted as described above. […] Student’s t test was performed to determine statistical significance of T-cell proliferation when comparing medium- and drug-treated cultures (*p ≤ .05; **p ≤ .005; ***p < .001).
Figure 3. Naïve T-cell priming with training compounds. CD14+ monocytes were utilized to generate dendritic cells with a cocktail of GM-CSF (800 U/ml) and IL-4 (800 U/ml) in culture media for 6 days. […] A, Nitroso sulfamethoxazole. B, Vancomycin. C, Bandrowski’s base. D, Carbamazepine. E, Piperacillin. The degree of naïve T-cell priming was determined by comparing the counts per minutes (cpm) of drug and media-treated cultures using a beta counter. Student’s t test was performed to determine statistical significance (*p ≤ .05; **p ≤ .005; ***p < .001). Each data point represents T-cells proliferation in individual well of a 96 U-bottomed plate.
Figure 4. Dose-dependent stimulation of primed T-cells with training compound. […] Primed cells were washed extensively and then restimulated with 3 drug concentrations (low, medium, and high) for 48 h followed by determination of T-cell activation by [^3H]-thymidine incorporation. Each data point represents T-cells proliferation in individual well of a 96 U-bottomed plate.
Figure 5. Naïve T-cell priming with test compounds. […] B, Dacarbazine. […] F, Iproniazid. G, Mepivacaine. H, Nevirapine. […] J, Phenoxybenzamine. Primed cells were washed extensively and then restimulated medium or drug for 48 h followed by determination of T-cell activation by [^3H]-thymidine incorporation. Each data point represents T-cells proliferation in individual well of a 96 U-bottomed plate.

| Compound | IC50 (PBMC; Homo sapiens, PBMC) [µM] | IC50 (PBMC) [µM] | Overall immunogenicity call in T-cell assays (T-cell clones) | Routine Assays that are Positive (GSK) [1] | FDA Clinical Hepatotoxicity Concern [2] | LiverTox annotation: likelihood as cause of clinically apparent liver injury [3] | IC50 (PBMC; listed as mepivacaine) [µM] | Proliferation of primed T-cells, drug- vs medium-restimulated wells (naïve T-cells) | Proliferation in medium restimulated wells after priming (naïve T-cells) | IC50 (PBMC; listed as nevirapine) [µM] | IC50 (PBMC; listed as iproniazid) [µM] |
| --- | --- | --- | --- | --- | --- | --- | --- | --- | --- | --- | --- |
| CN(C)/N=N/c1[nH]cnc1C(N)=O [Dacarbazine] | 15 | ≤ 20 | did not flag these compounds as immunogenic | Reactive metabolite; 3D hepatocyte spheroid | Most | Highly likely cause of clinically apparent liver injury. May be immunologically mediated as usually occurs with second or third cycle and accompanied by eosinophilia | – | – | – | – | – |
| Cc1cccc(C)c1NC(=O)C1CCCCN1C (stereo not drawn) [Mepivacaine] | – | 210 | no false positives | None | No | Unlikely to be a cause of clinically apparent liver injury | ≥ 50 | increases in proliferation with drug restimulation was not observed | high level of proliferation | – | – |
| COc1cc([C@@H]2c3cc4c(cc3[C@@H](O[C@@H]3O[C@@H]5CO[C@@H](C)O[C@H]5[C@H](O)[C@H]3O)[C@H]3COC(=O)[C@H]23)OCO4)cc(OC)c1O [Etoposide] | 20 | ≤ 20 | no false positives | – | Less | Probable cause of clinically apparent liver injury. Absence of immunoallergic features (rash, fever, eosinophilia) and of autoantibodies noted. Uncommon to have features of hypersensitivity | – | – | – | – | – |
| Cc1ccnc2c1NC(=O)c1cccnc1N2C1CC1 [Nevirapine] | – | 110 | did not flag these compounds as immunogenic | None | Most | Well-known cause of clinically apparent liver injury. Immunoallergic hepatitis associated with specific HLA types | – | increases in proliferation with drug restimulation was not observed | high level of proliferation | ≥ 50 | – |
| CC(C)NNC(=O)c1ccncc1 [Iproniazid] | – | 290 | did not flag these compounds as immunogenic | None | Most | – | – | increases in proliferation with drug restimulation was not observed | high level of proliferation | – | ≥ 50 |
| O=C1CN(/N=C/c2ccc([N+](=O)[O-])o2)C(=O)N1 [Nitrofurantoin] | 15 | ≤ 20 | did not flag these compounds as immunogenic | – | Most | Well-known cause of clinically apparent liver injury. Oxidative free radical formation. Some cases show autoimmune etiology with linkage to HLA-DR6 and DR2 | – | – | – | – | – |
